According to patent publication US8765669B2, “Glycosylated GLP-1 peptide” (Glytech, Inc., priority 2008, dated 2014):
No end group written: not given here.

Target: T1, DPP-IV (dipeptidyl peptidase IV from porcine kidney) (Sus scrofa, UniProt P22411)
T1 construct: dipeptidyl peptidase IV from porcine kidney, product of SIGMA; purchased SIGMA; host or cells: porcine kidney (tissue-derived enzyme)
Assay: Test of resistance to dipeptidyl peptidase IV (DPP-IV)
Assay type: in vitro ADME
Details: half-life (t1/2) in DPP-IV solution at 37° C., GLP-1 of Comparative Example 1 defined as standard (=1)
Method: Each solution mixture was adjusted with 100 mM sodium phosphate buffer to 100 μl in total and allowed to react at 37° C. A 10 μaliquot of the reaction solution was mixed with 15 μl of 10% trifluoroacetic acid prepared in advance in another Eppendorf tube.

T1 sequence (P22411 whole entry): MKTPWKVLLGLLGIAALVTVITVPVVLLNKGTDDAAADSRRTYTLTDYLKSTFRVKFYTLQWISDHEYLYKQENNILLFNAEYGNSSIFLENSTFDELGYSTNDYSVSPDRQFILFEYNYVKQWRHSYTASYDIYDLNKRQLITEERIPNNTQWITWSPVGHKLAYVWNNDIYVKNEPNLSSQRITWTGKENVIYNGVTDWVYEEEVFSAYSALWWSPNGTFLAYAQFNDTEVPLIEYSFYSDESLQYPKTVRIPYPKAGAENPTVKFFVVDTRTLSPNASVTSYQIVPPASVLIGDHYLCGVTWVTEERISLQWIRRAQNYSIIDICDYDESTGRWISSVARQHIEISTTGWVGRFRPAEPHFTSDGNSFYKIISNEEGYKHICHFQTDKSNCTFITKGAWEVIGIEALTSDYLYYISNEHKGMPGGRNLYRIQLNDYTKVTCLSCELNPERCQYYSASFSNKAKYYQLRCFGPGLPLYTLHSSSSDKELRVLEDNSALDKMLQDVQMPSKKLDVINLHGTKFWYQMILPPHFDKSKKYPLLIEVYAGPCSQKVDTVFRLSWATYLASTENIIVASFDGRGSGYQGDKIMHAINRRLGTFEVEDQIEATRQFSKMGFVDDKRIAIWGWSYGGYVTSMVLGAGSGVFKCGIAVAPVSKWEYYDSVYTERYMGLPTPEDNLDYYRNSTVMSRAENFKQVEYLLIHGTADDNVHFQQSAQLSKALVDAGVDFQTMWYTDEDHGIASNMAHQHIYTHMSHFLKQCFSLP

Row | Molecule | Relative Resistance
1 | 36Cys-hyaluronic acid octasaccharide (HA-8) Added GLP-1 Peptide (HAEGTFTSDVSSYLEGQAAKEFIAWLVKGC(hyaluronic acid octasaccharide)G) [Example 9] | 3
2 | CC[C@H](C)[C@H](NC(=O)[C@H](Cc1ccccc1)NC(=O)[C@H](CCC(=O)O)NC(=O)[C@H](CCCCN)NC(=O)[C@H](C)NC(=O)[C@H](C)NC(=O)[C@H](CCC(N)=O)NC(=O)[C@H](CSCC(=O)N[C@@H]1O[C@H](CO)[C@@H](O[C@@H]2O[C@H](CO)[C@@H](O[C@@H]3O[C@H](CO[C@H]4O[C@H](CO)[C@@H](O)[C@H](O)[C@@H]4O[C@@H]4O[C@H](CO)[C@@H](O[C@@H]5O[C@H](CO[C@]6(C(=O)O)C[C@H](O)[C@@H](NC(C)=O)[C@H]([C@H](O)[C@H](O)CO)O6)[C@H](O)[C@H](O)[C@H]5O)[C@H](O)[C@H]4NC(C)=O)[C@@H](O)[C@H](O[C@H]4O[C@H](CO)[C@@H](O)[C@H](O)[C@@H]4O[C@@H]4O[C@H](CO)[C@@H](O[C@@H]5O[C@H](CO[C@]6(C(=O)O)C[C@H](O)[C@@H](NC(C)=O)[C@H]([C@H](O)[C@H](O)CO)O6)[C@H](O)[C@H](O)[C@H]5O)[C@H](O)[C@H]4NC(C)=O)[C@@H]3O)[C@H](O)[C@H]2NC(C)=O)[C@H](O)[C@H]1NC(C)=O)NC(=O)[C@H](CCC(=O)O)NC(=O)[C@H](CC(C)C)NC(=O)[C@H](Cc1ccc(O)cc1)NC(=O)[C@H](CO)NC(=O)[C@H](CO)NC(=O)[C@@H](NC(=O)[C@H](CC(=O)O)NC(=O)[C@H](CO)NC(=O)[C@@H](NC(=O)[C@H](Cc1ccccc1)NC(=O)[C@@H](NC(=O)CNC(=O)[C@H](CCC(=O)O)NC(=O)[C@H](C)NC(=O)[C@@H](N)Cc1c[nH]cn1)[C@@H](C)O)[C@@H](C)O)C(C)C)C(=O)N[C@@H](CSCC(=O)N[C@@H]1O[C@H](CO)[C@@H](O[C@@H]2O[C@H](CO)[C@@H](O[C@@H]3O[C@H](CO[C@H]4O[C@H](CO)[C@@H](O)[C@H](O)[C@@H]4O[C@@H]4O[C@H](CO)[C@@H](O[C@@H]5O[C@H](CO[C@]6(C(=O)O)C[C@H](O)[C@@H](NC(C)=O)[C@H]([C@H](O)[C@H](O)CO)O6)[C@H](O)[C@H](O)[C@H]5O)[C@H](O)[C@H]4NC(C)=O)[C@@H](O)[C@H](O[C@H]4O[C@H](CO)[C@@H](O)[C@H](O)[C@@H]4O[C@@H]4O[C@H](CO)[C@@H](O[C@@H]5O[C@H](CO[C@]6(C(=O)O)C[C@H](O)[C@@H](NC(C)=O)[C@H]([C@H](O)[C@H](O)CO)O6)[C@H](O)[C@H](O)[C@H]5O)[C@H](O)[C@H]4NC(C)=O)[C@@H]3O)[C@H](O)[C@H]2NC(C)=O)[C@H](O)[C@H]1NC(C)=O)C(=O)N[C@@H](Cc1c[nH]c2ccccc12)C(=O)N[C@@H](CC(C)C)C(=O)N[C@H](C(=O)N[C@@H](CCCCN)C(=O)NCC(=O)N[C@@H](CCCNC(=N)N)C(=O)NCC(=O)O)C(C)C [Example 3, 22 and 30Cys-disialo oligosaccharide Chain Added GLP-1] | 32.5
3 | CC[C@H](C)[C@H](NC(=O)[C@H](Cc1ccccc1)NC(=O)[C@H](CCC(=O)O)NC(=O)[C@H](CCCCN)NC(=O)[C@H](C)NC(=O)[C@H](C)NC(=O)[C@H](CCC(N)=O)NC(=O)[C@H](CSCC(=O)N[C@@H]1O[C@H](CO)[C@@H](O[C@@H]2O[C@H](CO)[C@@H](O[C@@H]3O[C@H](CO[C@H]4O[C@H](CO)[C@@H](O)[C@H](O)[C@@H]4O[C@@H]4O[C@H](CO)[C@@H](O[C@@H]5O[C@H](CO[C@]6(C(=O)O)C[C@H](O)[C@@H](NC(C)=O)[C@H]([C@H](O)[C@H](O)CO)O6)[C@H](O)[C@H](O)[C@H]5O)[C@H](O)[C@H]4NC(C)=O)[C@@H](O)[C@H](O[C@H]4O[C@H](CO)[C@@H](O)[C@H](O)[C@@H]4O[C@@H]4O[C@H](CO)[C@@H](O[C@@H]5O[C@H](CO[C@]6(C(=O)O)C[C@H](O)[C@@H](NC(C)=O)[C@H]([C@H](O)[C@H](O)CO)O6)[C@H](O)[C@H](O)[C@H]5O)[C@H](O)[C@H]4NC(C)=O)[C@@H]3O)[C@H](O)[C@H]2NC(C)=O)[C@H](O)[C@H]1NC(C)=O)NC(=O)[C@H](CCC(=O)O)NC(=O)[C@H](CC(C)C)NC(=O)[C@H](Cc1ccc(O)cc1)NC(=O)[C@H](CO)NC(=O)[C@H](CO)NC(=O)[C@@H](NC(=O)[C@H](CC(=O)O)NC(=O)[C@H](CO)NC(=O)[C@@H](NC(=O)[C@H](Cc1ccccc1)NC(=O)[C@@H](NC(=O)CNC(=O)[C@H](CCC(=O)O)NC(=O)[C@H](C)NC(=O)[C@@H](N)Cc1c[nH]cn1)[C@@H](C)O)[C@@H](C)O)C(C)C)C(=O)N[C@@H](C)C(=O)N[C@@H](Cc1c[nH]c2ccccc12)C(=O)N[C@@H](CC(C)C)C(=O)N[C@H](C(=O)N[C@@H](CCCCN)C(=O)NCC(=O)N[C@@H](CSCC(=O)N[C@@H]1O[C@H](CO)[C@@H](O[C@@H]2O[C@H](CO)[C@@H](O[C@@H]3O[C@H](CO[C@H]4O[C@H](CO)[C@@H](O)[C@H](O)[C@@H]4O[C@@H]4O[C@H](CO)[C@@H](O[C@@H]5O[C@H](CO[C@]6(C(=O)O)C[C@H](O)[C@@H](NC(C)=O)[C@H]([C@H](O)[C@H](O)CO)O6)[C@H](O)[C@H](O)[C@H]5O)[C@H](O)[C@H]4NC(C)=O)[C@@H](O)[C@H](O[C@H]4O[C@H](CO)[C@@H](O)[C@H](O)[C@@H]4O[C@@H]4O[C@H](CO)[C@@H](O[C@@H]5O[C@H](CO[C@]6(C(=O)O)C[C@H](O)[C@@H](NC(C)=O)[C@H]([C@H](O)[C@H](O)CO)O6)[C@H](O)[C@H](O)[C@H]5O)[C@H](O)[C@H]4NC(C)=O)[C@@H]3O)[C@H](O)[C@H]2NC(C)=O)[C@H](O)[C@H]1NC(C)=O)C(=O)NCC(=O)O)C(C)C [Example 4, 22 and 36Cys-disialo oligosaccharide Chain Added GLP-1] | 22.5
4 | CC[C@H](C)[C@H](NC(=O)[C@H](Cc1ccccc1)NC(=O)[C@H](CCC(=O)O)NC(=O)[C@H](CCCCN)NC(=O)[C@H](C)NC(=O)[C@H](C)NC(=O)[C@H](CCC(N)=O)NC(=O)CNC(=O)[C@H](CCC(=O)O)NC(=O)[C@H](CC(C)C)NC(=O)[C@H](Cc1ccc(O)cc1)NC(=O)[C@H](CO)NC(=O)[C@H](CO)NC(=O)[C@@H](NC(=O)[C@H](CC(=O)O)NC(=O)[C@H](CO)NC(=O)[C@@H](NC(=O)[C@H](Cc1ccccc1)NC(=O)[C@@H](NC(=O)CNC(=O)[C@H](CCC(=O)O)NC(=O)[C@H](C)NC(=O)[C@@H](N)Cc1c[nH]cn1)[C@@H](C)O)[C@@H](C)O)C(C)C)C(=O)N[C@@H](CSCC(=O)N[C@@H]1O[C@H](CO)[C@@H](O[C@@H]2O[C@H](CO)[C@@H](O[C@@H]3O[C@H](CO[C@H]4O[C@H](CO)[C@@H](O)[C@H](O)[C@@H]4O[C@@H]4O[C@H](CO)[C@@H](O[C@@H]5O[C@H](CO[C@]6(C(=O)O)C[C@H](O)[C@@H](NC(C)=O)[C@H]([C@H](O)[C@H](O)CO)O6)[C@H](O)[C@H](O)[C@H]5O)[C@H](O)[C@H]4NC(C)=O)[C@@H](O)[C@H](O[C@H]4O[C@H](CO)[C@@H](O)[C@H](O)[C@@H]4O[C@@H]4O[C@H](CO)[C@@H](O[C@@H]5O[C@H](CO[C@]6(C(=O)O)C[C@H](O)[C@@H](NC(C)=O)[C@H]([C@H](O)[C@H](O)CO)O6)[C@H](O)[C@H](O)[C@H]5O)[C@H](O)[C@H]4NC(C)=O)[C@@H]3O)[C@H](O)[C@H]2NC(C)=O)[C@H](O)[C@H]1NC(C)=O)C(=O)N[C@@H](Cc1c[nH]c2ccccc12)C(=O)N[C@@H](CC(C)C)C(=O)N[C@H](C(=O)N[C@@H](CCCCN)C(=O)NCC(=O)N[C@@H](CSCC(=O)N[C@@H]1O[C@H](CO)[C@@H](O[C@@H]2O[C@H](CO)[C@@H](O[C@@H]3O[C@H](CO[C@H]4O[C@H](CO)[C@@H](O)[C@H](O)[C@@H]4O[C@@H]4O[C@H](CO)[C@@H](O[C@@H]5O[C@H](CO[C@]6(C(=O)O)C[C@H](O)[C@@H](NC(C)=O)[C@H]([C@H](O)[C@H](O)CO)O6)[C@H](O)[C@H](O)[C@H]5O)[C@H](O)[C@H]4NC(C)=O)[C@@H](O)[C@H](O[C@H]4O[C@H](CO)[C@@H](O)[C@H](O)[C@@H]4O[C@@H]4O[C@H](CO)[C@@H](O[C@@H]5O[C@H](CO[C@]6(C(=O)O)C[C@H](O)[C@@H](NC(C)=O)[C@H]([C@H](O)[C@H](O)CO)O6)[C@H](O)[C@H](O)[C@H]5O)[C@H](O)[C@H]4NC(C)=O)[C@@H]3O)[C@H](O)[C@H]2NC(C)=O)[C@H](O)[C@H]1NC(C)=O)C(=O)NCC(=O)O)C(C)C [Example 5, 30,36Cys-disialo oligosaccharide Chain Added GLP-1 Peptide] | 7.5
5 | CC[C@H](C)[C@H](NC(=O)[C@H](Cc1ccccc1)NC(=O)[C@H](CCC(=O)O)NC(=O)[C@H](CCCCN)NC(=O)[C@H](C)NC(=O)[C@H](C)NC(=O)[C@H](CCC(N)=O)NC(=O)CNC(=O)[C@H](CCC(=O)O)NC(=O)[C@H](CC(C)C)NC(=O)[C@H](Cc1ccc(O)cc1)NC(=O)[C@H](CO)NC(=O)[C@H](CO)NC(=O)[C@@H](NC(=O)[C@H](CC(=O)O)NC(=O)[C@H](CO)NC(=O)[C@@H](NC(=O)[C@H](Cc1ccccc1)NC(=O)[C@@H](NC(=O)CNC(=O)[C@H](CCC(=O)O)NC(=O)[C@H](C)NC(=O)[C@@H](N)Cc1c[nH]cn1)[C@@H](C)O)[C@@H](C)O)C(C)C)C(=O)N[C@@H](CSCC(=O)N[C@@H]1O[C@H](CO)[C@@H](O)[C@H](O[C@@H]2O[C@H](C(=O)O)[C@@H](O[C@@H]3O[C@H](CO)[C@@H](O)[C@H](O[C@@H]4O[C@H](C(=O)O)[C@@H](O)[C@H](O)[C@H]4O)[C@H]3NC(C)=O)[C@H](O)[C@H]2O)[C@H]1NC(C)=O)C(=O)N[C@@H](Cc1c[nH]c2ccccc12)C(=O)N[C@@H](CC(C)C)C(=O)N[C@H](C(=O)N[C@@H](CCCCN)C(=O)NCC(=O)N[C@@H](CCCNC(=N)N)C(=O)NCC(=O)O)C(C)C [Example 6, 30Cys-hyaluronic acid tetrasaccharide (HA-4) Added GLP-1 Peptide] | 2.1
